In data set [1] the test system is patients suffering from psychogenic erectile dysfunction. Put plainly: In-clinic efficacy and safety study of nasal apomorphine HCl, double blind double dummy placebo controlled cross over, self graded questionnaire. It counts as in vivo, human. The settings on record: nasal administration, containing propylene glycol.
Data set [2] relates to patients suffering from erectile dysfunction. The settings on record: intranasal delivery, 2.5 mg to 3.5 mg; cited from earlier work.
The next data set deals with healthy male subjects. Description: Adverse nasal effects after nasal administration of apomorphine HCl formulations to male subjects (Examples 1-6). It counts as in vivo, human. The procedure: A series of experiments were performed to illustrate features and advantages of the present invention. Several conditions were common to each experiment. […] Further, none of the subjects took any medication for two weeks prior to these experiments.
A different dosage of apomorphine was administered in each experiment to determine a preferred range of dosages having minimal adverse effects.

Where [3] appears, read: 0.5 mg, without glycol derivatives, three subjects.
[4] abbreviates: 2.0 mg, without glycol derivatives, nine subjects.

For `CN1CCc2cccc3c2[C@H]1Cc1ccc(O)c(O)c1-3` [apomorphine], the “Induction of an erection (overall conclusion)” value in data set [1] is on record as “effective in inducing an erection”. Also, the “Induction of an erection compared with nasal placebo or Viagra” value is given as “more effective than a nasal placebo or Viagra in inducing an erection” in data set [1] (listed as apomorphine HCI) and “more effective than nasal placebo or Viagra in inducing an erection” in data set [1] (listed as apomorphine HCl). Besides, the Eliciting an erection entry in data set [2] was “effective for eliciting an erection”. For the same molecule, in data set [2], the “Side effects suffered by study participants” value was “extensive and serious side effects including hypotension, nausea, vomiting, impaired vision, diaphoresis and ashen coloring”. Further, the “Adverse nasal effects (overall conclusion)” value in the data set on healthy male subjects (0.5 mg, does not contain glycol derivatives) is reported as “some adverse nasal effects”; with healthy male subjects (1.0 mg dose, does not contain glycol derivatives) it was “some adverse nasal effects”; with healthy male subjects (1.0 mg, composition with propylene glycol (Table 5), six subjects), “none of the subjects suffered from adverse nasal effects”; in the data set on healthy male subjects (2.0 mg, composition with propylene glycol (Table 6), six subjects), “none of the subjects suffered from adverse nasal effects”; in the data set with healthy male subjects (2.0 mg, without glycol derivatives) it was “some adverse nasal effects”; in the data set on healthy male subjects (4.0 mg, does not contain glycol derivatives), “some adverse nasal effects”. Further, in the data set on healthy male subjects (setting [3]), the “Number of subjects who did not suffer any symptoms” value was “One”. Also, the “Number of subjects who suffered from mild nasal burning or pain” value with healthy male subjects (setting [3]) was “two”. In the data set with healthy male subjects (setting [4]), the “Number of subjects who suffered from mild nasal burning” value was “One”. For the same molecule, the “Number of subjects who suffered from mild to moderate nasal burning” value in the data set on healthy male subjects (setting [4]) is on record as “one”. Besides, the “Number of subjects who suffered from mild unusual taste” value in the data set on healthy male subjects (setting [4]) is “four”. Moreover, in the data set on healthy male subjects (4.0 mg, does not contain glycol derivatives, two subjects), the “Number of subjects who experienced moderate sneezing, somewhat troublesome” value is on record as “One”.

(Values after patent US20040101484A1, “Nasal delivery of apomorphine in combination with glycol derivatives” (priority 1998, published 2004).)
